Patent publication US20260184700A1, “PDK1 REGULATORY COMPOUND AND COMPOSITION CONTAINING THE SAME” (PROVIBIO CO., LTD., priority 2024, published 2026)

Key:
[1] = target: T1, full-length (PDK1-FL) protein of human-derived PDK1 (Homo sapiens, UniProt O15530); assay: Microscale Thermophoresis (MST) binding, full-length PDK1; conditions: Kd ratio
T1 construct: the full-length (PDK1-FL) protein of human-derived PDK1; inferred from the Ni-NTA purification; made in house; host or cells: Sf9 insect cells, baculovirus
T1 sequence (O15530 1-556): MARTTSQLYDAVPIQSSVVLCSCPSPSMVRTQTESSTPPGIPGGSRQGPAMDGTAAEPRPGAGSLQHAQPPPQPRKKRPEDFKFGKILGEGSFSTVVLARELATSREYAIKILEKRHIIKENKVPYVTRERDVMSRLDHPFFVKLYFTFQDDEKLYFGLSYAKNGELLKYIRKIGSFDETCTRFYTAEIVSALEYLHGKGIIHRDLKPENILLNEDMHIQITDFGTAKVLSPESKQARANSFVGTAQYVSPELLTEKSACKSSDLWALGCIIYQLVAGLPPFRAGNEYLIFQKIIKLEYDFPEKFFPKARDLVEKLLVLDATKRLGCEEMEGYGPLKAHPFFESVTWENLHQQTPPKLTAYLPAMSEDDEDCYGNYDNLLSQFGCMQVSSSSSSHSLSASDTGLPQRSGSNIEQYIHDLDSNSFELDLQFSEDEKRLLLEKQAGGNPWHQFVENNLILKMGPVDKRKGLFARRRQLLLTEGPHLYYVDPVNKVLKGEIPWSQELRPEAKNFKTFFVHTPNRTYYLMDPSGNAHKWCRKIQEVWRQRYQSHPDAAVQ
Experimental: Microscale Thermophoresis (MST) analysis was performed to quantitatively measure the binding affinity between PDK1 protein and substrate peptides (PDKTide) or the company-developed low-molecular-weight compound (GO88).
The target proteins were the full-length (PDK1-FL) protein of human-derived PDK1 and the Protein Kinase Domain (PKD) fragment, which were expressed using a baculovirus expression system in insect cell lines (Sf9).
The purity of the purified proteins was confirmed by SDS-PAGE and Coomassie Brilliant Blue staining.
The purified protein was labeled with a fluorescent label using the Monolith NT™ RED-NHS Protein Fluorescent Labeling Kit (NanoTemper).
Specifically, 20 μM of the protein was dissolved in PBS (pH 7.4) buffer, mixed with the fluorescent reagent, and reacted at room temperature under dark conditions for 30 minutes. The mixture was then buffered with MST analysis buffer (50 mM HEPES, 150 mM NaCl, 1 mM DTT, 0.05% Tween-20, pH 7.5). […]
The reaction samples were injected into an MST-specific capillary (NanoTemper) and analyzed using a Monolith NT.115 device (NanoTemper) under laser intensity conditions. […]
The measured data were analyzed using MO.Affinity Analysis software (NanoTemper), and the dissociation constant (Kd) was calculated from the binding curve.

[2] = system: skin-grafted C57BL/6 mice; assay: Skin graft animal model (BALB/c donor, C57BL/6 recipient); type: in vivo, mouse; conditions: GO88 0.15 mg/kg twice daily
Experimental: To evaluate the immune-suppressive effects of the compounds according to the present invention, a skin graft animal model was established, and the efficacy of the compounds was analyzed in the model.
First, female BALB/c mice aged 7 weeks and weighing approximately 20 g were used as donor animals, and female C57BL/6 mice of the same age and weight were used as recipient animals. All experimental animals were supplied by HanabioTech Co., Ltd.
Prior to the experiment, the animals were acclimatized in SPF-certified facilities for one week and then used in the experiment. The housing conditions were maintained at a temperature of 22±2° C., relative humidity of 55±10%, and a 12-hour light-dark cycle.
To establish the skin graft model, a anesthetic solution consisting of ketamine, […], and PBS in a volume ratio of 1:1:3 was administered intraperitoneally to C57BL/6 mice to induce anesthesia.
The hair on the dorsal side of the anesthetized mice was removed and disinfected, followed by excision of the full-thickness skin using an 8 mm punch. Subsequently, skin of the same size was harvested from donor mice (BALB/c) and transplanted. […]
Subsequently, the proportions of CD3- and B220-positive cells were analyzed using a flow cytometer.

binding affinity of full-length PDK1 compared to the PDK fragment [1]: six times stronger binding affinity
SMILES: Nc1ncccc1C(=O)NCCCCCCCCCCCCN1CCNCC1 [Compound 14, 2-Amino-N-(12-(piperazin-1-yl)dodecyl)nicotinamide]
animals with graft pinkening and good blood flow ([2]; day 10 post-transplantation): three out of five animals | animals with graft pinkening and good blood flow ([2]; day 15 post-transplantation): one out of five animals
